Measurements published in publication PMC9555310, “Novel inhibitors and activity-based probes targeting serine proteases” (Frontiers in Chemistry, 2022).
“And” between values parts separate entries of the source, which are not always exact repeats. Equal values may be shown once. Read-outs that look alike come from different tables or passages of the source.

Tests used:
[1] = molecular target: T1, chymotrypsin (Bos taurus, UniProt P00766); parameters: method as in Gilmore et al. (2009); conditions: ref Gilmore et al. (2009); cited from earlier work
T1 construct: purchased Sigma-Aldrich (supplement); Calbiochem; host or cells: bovine pancreas

[2] = molecular target: T2, trypsin (Sus scrofa, UniProt P00761); conditions: cited from earlier work
T2 construct: purchased Sigma-Aldrich; host or cells: porcine pancreas
T2 sequence (P00761 9-231): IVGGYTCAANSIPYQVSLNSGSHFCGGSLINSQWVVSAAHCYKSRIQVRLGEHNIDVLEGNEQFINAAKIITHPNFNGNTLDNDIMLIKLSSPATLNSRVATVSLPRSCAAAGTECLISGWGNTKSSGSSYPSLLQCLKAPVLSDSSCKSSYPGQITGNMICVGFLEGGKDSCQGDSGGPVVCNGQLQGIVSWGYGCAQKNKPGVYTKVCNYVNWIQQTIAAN

[3] = molecular target: T3, neutrophil elastase (NE) (Homo sapiens, UniProt P08246); assay: Off-target study, residual activity after 2 min pre-incubation: NE; format: biochemical; conditions: highest concentration (50 μM); 2 min incubation, PBS pH 7.4, 37°C
T3 construct: purchased Calbiochem
T3 sequence (P08246 30-267): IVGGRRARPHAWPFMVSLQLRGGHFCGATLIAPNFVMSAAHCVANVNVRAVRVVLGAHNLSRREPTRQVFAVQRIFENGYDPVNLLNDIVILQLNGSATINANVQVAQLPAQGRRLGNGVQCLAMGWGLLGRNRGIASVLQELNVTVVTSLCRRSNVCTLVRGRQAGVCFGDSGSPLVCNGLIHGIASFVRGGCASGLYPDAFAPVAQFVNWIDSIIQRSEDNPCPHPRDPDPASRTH
Procedure: (§1) FIGURE 5 Results of “off-target“ studies. NAP849 (A), NAP800 (B) and NAP830 (C) were tested against trypsin, chymotrypsin, and NE. Samples (approx. 0.01 μg) of each protease were incubated with the indicated concentrations of test compound for 2 min, in PBS, pH 7.4, at 37°C. (D) NAP858, NAP962 and NAP849 were tested against cathepsin B at the indicated concentrations in 0.1 M MES, pH 6.1, containing 1 mM EDTA, for 2 min, at 37°C. Aliquots (approx. 10 μL) of each incubation sample were then added to a fresh sample (990 μL) of PBS for the serine proteases and MES for cathepsin B, containing the appropriate substrate for each protease, to measure their residual activity. Controls incubations were performed in the absence of test compound, but in the presence of an appropriate volume of DMF vehicle used to prepare stock solutions of each inhibitor under study.
(§2) Two elements were investigated regarding possible “off-target” effects–determining the extent of cross-reactivity of each of the new putative ABPs between the various serine protease family members and assessing their collateral inhibitory action against another mechanistic class–the cysteine proteases, using cathepsin B (CTSB) as an exemplar.
(§3) For assays requiring a pre-incubation step enzyme and inhibitor in assay buffer were incubated together, at 37 °C, for 2 min, with gentle agitation. The reaction mixture was then aliquoted (50 μL) in duplicate on a black 96-well microtitre plate followed by addition of substrate to make a final concentration of 50 μM in a total volume of 100 μL. The fluorescence production was then measured as described for the previous procedure.
(§4) Figure ST1. Results of “off-target” studies. NAP559 and NAP533 were tested against chymotrypsin, and NE. Samples (approx. 0.01 mg) of each protease were incubated with the indicated concentrations of test compound for 2 min, in PBS, pH 7.4, at 37 °C. Aliquots (approx. 10 µL) of each incubation sample were then added to a fresh sample (990 µL) of PBS containing the appropriate substrate for each protease, to measure their residual activity. Controls incubations were performed in the absence of test compound, but in the presence of an appropriate volume of DMF vehicle used to prepare stock solutions of each inhibitor under study.

[4] = molecular target: T4, plasmin (Homo sapiens, UniProt P00747); assay: Irreversible inhibition kinetics of plasmin (fluorogenic substrate progress curves); format: biochemical; conditions: PBS pH 7.4, 37°C, mean ± SD (n=2)
T4 construct: purchased Sigma-Aldrich (supplement); R&D Systems; host or cells: human plasma
T4 sequence (P00747 581-810 limits assumed): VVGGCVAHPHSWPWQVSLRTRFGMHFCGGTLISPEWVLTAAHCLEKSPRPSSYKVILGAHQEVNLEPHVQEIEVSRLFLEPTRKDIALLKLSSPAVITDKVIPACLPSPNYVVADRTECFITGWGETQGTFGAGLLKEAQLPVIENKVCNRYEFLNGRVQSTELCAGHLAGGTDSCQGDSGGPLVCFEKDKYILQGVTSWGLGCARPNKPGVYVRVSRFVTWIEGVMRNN
T4 sequence (P00747 97-580 partner limits assumed): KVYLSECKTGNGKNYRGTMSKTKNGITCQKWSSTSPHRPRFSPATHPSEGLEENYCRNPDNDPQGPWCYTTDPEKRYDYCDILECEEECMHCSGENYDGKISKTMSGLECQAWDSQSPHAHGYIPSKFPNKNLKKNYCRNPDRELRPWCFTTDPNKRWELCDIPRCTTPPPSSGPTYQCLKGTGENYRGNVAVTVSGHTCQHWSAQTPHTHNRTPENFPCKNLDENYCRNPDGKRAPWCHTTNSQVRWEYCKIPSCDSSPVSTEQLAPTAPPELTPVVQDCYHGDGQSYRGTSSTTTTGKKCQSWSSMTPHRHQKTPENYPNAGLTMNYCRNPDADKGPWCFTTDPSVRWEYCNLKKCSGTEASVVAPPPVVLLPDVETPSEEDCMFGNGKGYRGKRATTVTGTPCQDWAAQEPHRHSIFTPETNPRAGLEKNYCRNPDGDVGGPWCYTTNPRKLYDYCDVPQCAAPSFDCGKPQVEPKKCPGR
Procedure: A range of inhibitor concentrations were prepared from a 10 mM stock solution of the test compounds (NAP533, NAP559, NAP800, NAP830, NAP849, and NAP962) in N, N-dimethylformamide (DMF). Recombinant protease activities were assayed using the cognate fluorogenic substrates as follows: trypsin (Z-Gly-Gly-Arg-NHMec), thrombin (Boc-Val-Pro-Arg-NHMec), plasmin (Boc-Val-Leu-Lys-NHMec), human neutrophil elastase (MeO-Succinyl-Ala-Ala-Pro-Val-NHMec), and chymotrypsin (Succinyl-Ala-Ala-Pro-Phe-NHMec). Each substrate was used at a final concentration of 50 μM, in the appropriate buffer for each protease. All inhibition assays were performed in microtiter plates maintained at 37°C in a final volume of 100 μL. The reaction was initiated by the addition of each protease (approx. 0.01 μg/well) and the rate of substrate hydrolysis was recorded continuously at 37°C, over a 60 min period, by measuring the rate of increase in fluorescence (at λex 360 nm, λem 480 nm) using a FLUOstar Optima microplate reader (BMG Labtech).
The resultant inhibition progress curves obtained for each inhibitor were analyzed by the kinetic models developed by [Tian and Tsou (1982)] and [Walker and Elmore (1984)], for irreversible inhibitors, with curve fitting being achieved using GraFit (Erithacus Software), as described previously ([Ferguson et al., 2016]).
FIGURE 4 Progress curves for (A), chymotrypsin-catalysed hydrolysis of Succinyl-Ala-Ala-Pro-Phe-NHMec, in the presence of varying concentrations of NAP849. (B), NE-catalysed hydrolysis of MeO-succinyl-Ala-Ala-Pro-Val-NHMec, in the presence of varying concentrations of NAP800. (C) Trypsin-catalysed of Z-Gly-Gly-Arg-NHMec, in the presence of NAP830. (D) Plasmin-catalysed hydrolysis of Boc-Val-Leu-Lys-NHMec, in the presence of varying concentrations of NAP962. Assays were carried out in PBS, pH 7.4, at 37°C, in the presence of a range of inhibitor concentrations (0.25–50 μM) and a fixed concentration (50 μM) of the appropriate substrate for each protease.
The “product progress” curves for substrate hydrolysis in the presence of an inhibitor (Figure 4) are indicative of the action of irreversible inhibitors operating through the kinetic scheme illustrated in Figure 6. In this scheme, the formation of the reversible enzyme–inhibitor complex (EI) is zcharacterized by the inhibitor constant K i. This is converted into the covalent/irreversible complex (E-I) characterized by a first-order rate constant k 3. The overall second-order rate constant for the inactivation of E by I is given by the ratio k 3/K i ([Walker and Elmore, 1984]; [Tsou, 1988]).
Fluorogenic enzyme assays were carried out on a FLUOstar OPTIMA spectro-fluorimeter (BMG Labtech) with analysis performed on MARS Data Analysis Software (BMG Labtech). Black 96-well microtitre plates were supplied by Thermo Scientific. Trypsin from porcine pancreas, plasmin from human plasma and chymotrypsin from bovine pancreas were obtained from Sigma-Aldrich. Thrombin and Cathepsin B were supplied by R and D Systems. Human Neutrophil Elastase was supplied by Calbiochem. Fluorogenic substrates Z-Gly-Gly-Arg-NHMec, Succinyl-Ala-Ala-Pro-Phe-NHMec and MeO-Succinyl-Ala-Ala-Pro-Val-NHMec were supplied by Sigma-Aldrich. Boc-Val-Pro-Arg-NHMec was obtained from R and D Systems and Boc-Val-Leu-Lys-NHMec was supplied by PeptaNova. Phosphate Buffered Saline tablets were acquired from Sigma- Aldrich.
Protease inactivation by each of the compounds under study was evaluated using a fluorogenic enzyme assays. Protease-substrate combinations used as detailed in Section 2. Inhibitors were made up as 10 mM stock solutions in either DMF or DMSO, then diluted with PBS (pH 7.4) to give appropriate working concentrations. A final volume of 100 μL was used per well. Substrate (50 μM final concentration) was added to a black 96-well microtitre plate (Thermo Scientific), in duplicate, followed by addition of inhibitor, in such a manner to give the required final concentration. […]

[5] = molecular target: T1, chymotrypsin; assay: Off-target study, residual activity after 2 min pre-incubation: chymotrypsin; format: biochemical, bovine; conditions: highest concentration (50 μM); 2 min incubation, PBS pH 7.4, 37°C
Procedure: as §1, §2, §3, §4

[6] = molecular target: T5, thrombin (Homo sapiens, UniProt P00734); assay: Activity-based profiling of thrombin (SDS-PAGE, streptavidin-HRP western blot); format: binding; conditions: 30 min, 37°C; heavy (catalytic) chain; recapitulated in Figure 8B
T5 construct: apparent molecular mass of 31 kDa, corresponding to the heavy (catalytic) chain of the protease; purchased R&D Systems
Procedure: (§5) Samples of recombinant protease (trypsin, plasmin, thrombin, chymotrypsin, or HNE, as indicated in the relevant figure legends) were treated with each of the newly synthesized compounds at a concentration of 50 μM, for 30 min, at 37°C. A control sample (no ABP) was prepared by treating the recombinant protease with solvent vehicle (DMF) only, used to prepare the stock solution of each ABP. Samples were also pre-treated (±90°C for 30 min) before being incubated with each putative ABP. With trypsin and thrombin, further samples were prepared where Z-Arg^P-(OPh)2 or NAP559, respectively, was added 30 min prior to the addition of the ABP under examination. All treated samples were then denatured with SDS containing reducing treatment buffer (10 min at 95°C), followed by resolution by SDS-PAGE and subjected to Western blotting. Resolved proteins were then transferred onto the nitrocellulose membrane and labeled with streptavidin-HRP. The ABP–protease complex was then visualized following treatment with Luminata Forte HRP substrate.
(§6) FIGURE 8 Activity Based Profiling of Trypsin-like serine proteases. (A) trypsin was treated (±) with NAP830, for 30 min, at 37°C (± pretreatment with Z-Arg^P-(OPh)2). (B) thrombin (1 […]) was pre-treated with various concentrations of NAP559 (30 min, at 37°C) followed by treatment (±) with NAP858 for 30 min, at 37°C. (C) Plasmin was treated in turn with QUBTL1, NAP962 and NAP830, (± pre-heat inactivation at 95°C, for 10 min) for 30 min, at 37°C. […]
(§7) Following transfer, the extra protein binding sites on the membrane were blocked by addition of 3% (w/v) BSA in TBST (20 mM Tris, 137 mM NaCl, 1% (v/v) Tween 20, pH 7.6) and agitated gently at room temperature for 30 minutes. The biotin-labelled proteases were then detected by addition of Streptavidin-HRP (Vector Laboratories) in 3% (w/v) BSA in TBST at a concentration of 1:20000, for 1 hour at room temperature. […]

[7] = molecular target: T6, cathepsin B (CTSB) (Homo sapiens, UniProt P07858); assay: Off-target study, residual activity after 2 min pre-incubation: cathepsin B; format: biochemical; conditions: 25 and 50 μM, 0.1 M MES pH 6.1, 1 mM EDTA, 37°C
T6 construct: purchased R and D Systems
Procedure: as §1, §2, §3
Assays with Cathepsin B required a pre-activation step of the protease prior to use in the fluorogenic enzyme assays. Cathepsin B was diluted to 10 μg/ml in activation buffer (0.1 M MES, pH 6.1, containing 1 mM EDTA and 2 mM DTT) and left to stand at room temperature for 15 minutes. Activated Cathepsin B was then diluted (1:50 to give 10 ng/50 μl) with assay buffer (activation buffer minus the DTT) prior to use as described previously.

[8] = molecular target: T4, plasmin; parameters: method as in Martin and Walker (2017); conditions: mean ± SD (n=2), ref Martin and Walker (2017); cited from earlier work
[9] = molecular target: T4, plasmin; assay: Activity-based profiling of plasmin (SDS-PAGE, streptavidin-HRP western blot); format: binding; conditions: 50 μM, 30 min, 37°C
Procedure: as §5, §6, §7

## O=C(CCCCC1SCC2NC(=O)NC21)NCCCOCCOCCOCCCNC(=O)CCC(=O)NC(Cc1ccccc1)P(=O)(Oc1ccccc1)Oc1ccccc1 (centres unmarked) [QUBCL1, biotin-PEG-succinyl-Phe^P-(OPh)2]
[1]
  Ki: 1080 nM
  k 3: 0.119 min⁻¹
  k 3 / K i: 1850 M⁻¹ s⁻¹

## Biotin-PEG-Succinyl-Lys^P-(OPh)2 [QUBTL2]
[2]; ref Martin and Walker (2017)
  k 3 / K i: 18300 M⁻¹ s⁻¹

## CC(C)[C@H](NC(=O)CN(Cc1ccccc1)C(=O)CN(CCCCN)C(=O)ON1C(=O)CCC1=O)C(N)=O [NAP533, Succinimidoyl-CO-NLys-NPhe-Val-NH2]
[3]
  inhibition of NE: < 5 % of control
[4]; Boc-Val-Leu-Lys-NHMec 50 μM
  Ki: 2200 nM
[4]; first-order rate constant
  k 3: 0.4 (± 0.04) min^−1
[4]; second-order rate constant of inactivation
  k 3 / K i: 1.7 (± 0.3) × 10^5 M^−1 min^−1
[5]
  inhibition of chymotrypsin: < 5 % of control

## N=C(N)NCCCN(CC(=O)NCC(=O)NCC(=O)NCCCOCCOCCOCCCNC(=O)CCCCC1SCC2NC(=O)NC21)C(=O)ON1C(=O)CCC1=O (centres unmarked) [NAP858]
[6]
  labelling of thrombin by ABP (western blot): detection of a band with an apparent molecular mass of 31 kDa
[7]
  inhibitory activity against CTSB: none of the three carbamates tested exhibited any inhibitory activity against CTSB
[2]; ref Ferguson et al. (2022)
  k 3: 0.5 (+ 0.1) min^−1
  k 3 / K i: 34300 M⁻¹ s⁻¹ and 35000 M⁻¹ s⁻¹

## N=C(N)NCCCC(NC(=O)CCC(=O)NCCCOCCOCCOCCCNC(=O)CCCCC1SCC2NC(=O)NC21)P(=O)(Oc1ccccc1)Oc1ccccc1 (centres unmarked) [QUBTL1, biotin-PEG-succinyl-arginine diphenyl phosphonate]
[8]
  Ki: 89 nM
  k 3: 0.3 (± 0.05) min^−1
  k 3 / K i: 3.1 (± 0.2) × 10^6 M^−1 min^−1
[9]
  labelling of plasmin by ABP (western blot): failed to detect any plasmin band
